Data reported in patent US12178791B2, “Haloallylamine sulfone derivative inhibitors of lysyl oxidases and uses thereof” (Syntara Limited, priority 2018, dated 2024).
Entries after “also recorded” stand apart in the source; their conditions may differ. Counter-ions that a name gives are not always drawn.

Columns and labels:
lysyl oxidase = assay: Target engagement: lysyl oxidase activity, ear slice assay; type: in vivo, Wistar rats
Method: The ears, collected right after sacrifice of the rats (treated or untreated with a LOX inhibitor), were snap frozen in dry ice for −80° C. storage. For the assay, 5×5 mm samples were cut (still half-thawed), embedded in agarose gel and cut in cross sections […] thick (vibratome). The thin sections were collected in ice cold PBS containing protease inhibitors, and allowed to rest in the bath for 2-3 hours, to allow soluble contaminants to diffuse away prior to the assay. For a 96 well plate format: three thin slices were collected, gently blotted dry on Kimwipe, and transferred to each well containing 100 μl of assay buffer (1.2 M urea, 50 mM sodium borate buffer, pH 8.2), for a 30 minute pre-incubation at 37° C. in presence of 1 μM mofegiline and 500 μM pargyline. BAPN (500 μM) had been added to all the “low control” wells. A minimum of three replicas were performed for each condition.
After pre-incubation, 100 μl of Amplex Red-horseradish peroxidase (HRP) mix (120 μM Amplex Red, 1.5 U/mL HRP, 20 mM putrescine) were added to all wells, and the plate was read at 37° C. every 2.5 minutes for 13 times, (544 nm excitation and 590 nm emission, on a BMG Clariostar, in orbital, top reading mode). The slope of the kinetic curves, subtracted by the values obtained in the low controls (in presence of BAPN), was considered a measure of the specific lysyl oxidase activity in the sample.
Young male Wistar rats were given a single oral dose (10 or 30 mg/kg) of Compounds 1 or 33 (Table 5 and 6 respectively) and the enzymatic activity was measured in tissues with a high basal activity at this age, in the ear (FIGS. 2a and b; Compound 1 and 33 respectively) and aorta (FIG. 3c; Compound 33 only). The responses were normalised to the activity measured in animals treated with saline (control).

Bovine LOX = Bovine LOX (Bos taurus (Bovine), UniProt P33072); assay: LOX inhibition, Amplex Red oxidation assay; type: biochemical; details: 30 min preincubation at 37 °C, putrescine substrate
Chain of Bovine LOX (P33072 170-418): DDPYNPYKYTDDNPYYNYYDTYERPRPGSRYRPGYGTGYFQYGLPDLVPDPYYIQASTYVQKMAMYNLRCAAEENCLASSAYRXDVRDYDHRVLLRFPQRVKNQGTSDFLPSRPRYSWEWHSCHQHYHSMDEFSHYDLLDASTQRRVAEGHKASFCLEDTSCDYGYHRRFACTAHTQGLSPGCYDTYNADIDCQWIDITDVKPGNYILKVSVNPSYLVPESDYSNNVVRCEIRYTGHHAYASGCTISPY
Summary of the method: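 Bovine LOX in 1.2 M urea, 50 mM sodium borate pH 8.2, with 1 μM mofegiline and 0.5 mM pargyline unless recombinant or purified. The added mix held putrescine at twice KM (20 mM for LOX), 120 μM Amplex Red and 1.5 U/mL HRP.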

[1] = In vivo pharmacokinetics, plasma concentration after p.o. dosing; set-up: species or system Wistar rats; details: for concentration at 0.25 h / concentration at 0.5 h / concentration at 1 h / concentration at 2 h / concentration at 3 h / concentration at 5 h / concentration at 8 h / concentration at 4 h: male, Wistar, plasma, po, rat; for concentration at 0.5 h: 0.50 hours; for plasma concentrations relative to the IC50: rat plasma, after 8 hours
Method: Test compounds (10 mg/kg and 30 mg/kg in PBS, p.o. n=3) were administered to 7-9 weeks old male Wistar rats. Test compound blood samples were collected at time points from 0.25 h-8.00 h (Compound 1); 0.5 h-8.00 h (Compound 33) post administration, from tail vein.
Sample preparation: 20 μL of calibration samples (in single), QC samples (in duplicate) and rat plasma samples were mixed with 60 μL acetonitrile containing internal standard (IS; 200 ng/mL of tolbutamide and 50 ng/mL propanolol) in Eppendorf tubes. The mixture was vortexed for 1 min, then centrifuged for 10 min, 50 μL of supernatant was transferred to a 96 well-plate with 100 μL water. After shaking for 10 min, 10 μL was injected into the liquid chromatography mass spectrometry (LC-MS/MS) system for analysis.
HPLC: Agilent 1100; Mass Spectrometer: API 4000
Column: Phenomenex Gemini C18 5 μm 50×4.6 mm
Mobile phase: 0.1% formic acid in water, 0.1% formic acid in acetonitrile
HPLC: Shimadzu LC30AD; Mass Spectrometer: API 4000
For dilution samples: 10 μL sample was added to 90 μL blank rat plasma. The mixture was precipitated with 300 μL acetonitrile containing IS in Eppendorf tubes. The mixture was vortexed for 1 min, then centrifuged for 10 min, 50 μL supernatant was transferred to a 96 well-plate with 100 μL water. After shaking for 10 min, 10 μL was injected into the LC-MS/MS system for analysis. Determined, mean plasma concentrations for Compounds 1 and 33 are shown in Table 5 and Table 6 respectively.

LOXL1 = LOXL1 (Homo sapiens (Human), UniProt Q08397); assay: Jump dilution experiment, sustained inhibition of LOXL1; type: biochemical; details: jump dilution after 40 min at 37 °C with 10× or 30× IC50; vs non-inhibited controls;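 also: 30× IC50 used only where needed so inhibitor exceeds enzyme concentration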
Chain of LOXL1 (Q08397 96-574, species assumed): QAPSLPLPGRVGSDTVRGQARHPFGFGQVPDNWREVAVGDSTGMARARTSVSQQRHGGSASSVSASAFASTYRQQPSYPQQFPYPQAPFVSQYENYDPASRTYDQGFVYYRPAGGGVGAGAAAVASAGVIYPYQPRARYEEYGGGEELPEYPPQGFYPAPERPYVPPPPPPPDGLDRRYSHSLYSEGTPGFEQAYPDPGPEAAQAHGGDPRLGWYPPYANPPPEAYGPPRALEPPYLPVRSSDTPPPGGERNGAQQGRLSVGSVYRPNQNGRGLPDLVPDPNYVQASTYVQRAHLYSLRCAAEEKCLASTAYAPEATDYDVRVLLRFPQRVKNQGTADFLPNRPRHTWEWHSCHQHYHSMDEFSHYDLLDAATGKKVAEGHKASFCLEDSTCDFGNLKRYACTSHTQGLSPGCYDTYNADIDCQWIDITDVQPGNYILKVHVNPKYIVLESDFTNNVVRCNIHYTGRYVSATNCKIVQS
Summary of the method: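 Enzyme preincubated with inhibitor at 100× the inhibition-study enzyme concentration, then diluted 50× in assay buffer and 2× in Amplex Red–HRP–putrescine mix. Fluorescence read; activity expressed as % signal recovery after a set time versus uninhibited controls.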

SMILES: NC/C=C(\F)CS(=O)(=O)c1ccccc1 [Compound 1, (Z)-3-fluoro-4-(phenylsulfonyl)but-2-en-1-amine hydrochloride]
- LOX activity in rat ear (lysyl oxidase; 24 hours after single oral dose at 10 and 30 mg/kg, vs saline control, hydrochloride): dose-dependent block; also recorded: dose dependent, sustained reduction
- IC50 (Bovine LOX): < 10 µM
- concentration at 0.25 h ([1]; 10 mg/kg p.o.): 379 ng/mL
- concentration at 0.5 h ([1]; 10 mg/kg p.o.): 736 ng/mL
- concentration at 1 h ([1]; 10 mg/kg p.o.): 450 ng/mL
- concentration at 2 h ([1]; 10 mg/kg p.o.): 134 ng/mL
- concentration at 3 h ([1]; 10 mg/kg p.o.): 66.4 ng/mL
- concentration at 5 h ([1]; 10 mg/kg p.o.): 27.2 ng/mL
- concentration at 8 h ([1]; 10 mg/kg p.o.): 6.4 ng/mL
- concentration at 0.25 h ([1]; 30 mg/kg p.o.): 1060 ng/mL
- concentration at 0.5 h ([1]; 30 mg/kg p.o.): 2090 ng/mL
- concentration at 1 h ([1]; 30 mg/kg p.o.): 1200 ng/mL
- concentration at 2 h ([1]; 30 mg/kg p.o.): 657 ng/mL
- concentration at 3 h ([1]; 30 mg/kg p.o.): 238 ng/mL
- concentration at 5 h ([1]; 30 mg/kg p.o.): 41.3 ng/mL
- concentration at 8 h ([1]; 30 mg/kg p.o.): 13.5 ng/mL
- plasma concentrations relative to the IC50 [1]: far below the IC50
- LOXL1 - Recovery of activity. (%) (LOXL1): 2.4%

SMILES: NC/C=C(\F)CS(=O)(=O)c1cccc2cccnc12 [Compound 33, (Z)-3-fluoro-4-(quinolin-8-ylsulfonyl)but-2-en-1-amine dihydrochloride]
- lysyl oxidase activity in rat tissue (lysyl oxidase; single high (30 mg/kg) oral dose): completely abolish
- half-life of recovery of lysyl oxidase activity (ear) (lysyl oxidase; single oral dose 30 mg/kg): 48 to 72 h
- IC50 (Bovine LOX): < 10 µM
- concentration at 0.5 h ([1]; 10 mg/kg p.o.): 771 ng/mL
- concentration at 1 h ([1]; 10 mg/kg p.o.): 548 ng/mL
- concentration at 2 h ([1]; 10 mg/kg p.o.): 246 ng/mL
- concentration at 4 h ([1]; 10 mg/kg p.o.): 56.4 ng/mL
- concentration at 8 h ([1]; 10 mg/kg p.o.): 8.4 ng/mL
- concentration at 0.5 h ([1]; 30 mg/kg p.o.): 3710 ng/mL
- concentration at 1 h ([1]; 30 mg/kg p.o.): 3010 ng/mL
- concentration at 2 h ([1]; 30 mg/kg p.o.): 1470 ng/mL
- concentration at 4 h ([1]; 30 mg/kg p.o.): 185 ng/mL
- concentration at 8 h ([1]; 30 mg/kg p.o.): 13.7 ng/mL
- plasma concentrations relative to the IC50 [1]: far below the IC50
- LOXL1 - Recovery of activity. (%) (LOXL1): 4.5%
